Values joined by “and” are separate entries in the source; they are usually repeats but may differ in a detail not shown here. Identical values can stand only once.
Target: T1, Spleen Tyrosine Kinase (SYK) aa 360-635 (Homo sapiens, UniProt P43405)
T1 construct: truncated construct of Spleen Tyrosine Kinase aa 360-635; made in house
Test: Determination of IC50 of Spleen Tyrosine Kinase (SYK) inhibition, 33P kinase assay
Type: biochemical
Settings: recombinant human SYK360-635, 20 μM ATP; read-out: IC50 (μM) SYK Assay
Experimental: Determination of IC50 of Spleen Tyrosine Kinase (SYK) Inhibition
The SYK kinase assay is a standard kinase assay adapted to a 96 well plate format. This assay is performed in 96-well format for IC50 determination with 8 samples which represented 10 half log dilutions and a 40 μL reaction volume. The assay measures the incorporation of radiolabeled ^33P γATP into an N-terminally biotinylated peptide substrate, derived from naturally occurring phosphoacceptor consensus sequence (Biotin-11aa DY*E). Phosphorylated products were detected upon termination of reactions with EDTA and the addition of Streptavidin coated beads. • Assay plates: 96-well MultiScreen 0.65 um filter plates (Millipore Cat. No.: MADVNOB10) • Streptavidin coated beads: Streptavidin Sepharose TM, suspension 5.0 mL, in 50 mM EDTA/PBS diluted (1:100), (Amersham, Cat. No.: 17-5113-01) • Compounds: 10 mM in 100% dimethylsulfoxide (DMSO), final conc.: compound 0.003-100 uM in 10% DMSO • Enzyme: SYK RPA purified, truncated construct of Spleen Tyrosine Kinase aa 360-635, stock solution 1 mg/mL, MW: 31.2 KDa, final conc.:0.0005 μM. • Peptide 1: biotinylated peptide is derived from a naturally occurring phosphor-acceptor consensus sequence (Biotin-[…]), special order from QCB, stock solution 20 mM, final conc.: 5.0 μM. • ATP: Adenosine-5′-triphosphate 20 mM, (ROCHE Cat. No.:93202720), final concentration: 20 μM • Buffer: HEPES: 2-Hydroxyethyl piperazine-2-ethanesulfonic acid (Sigma, Cat. No.: H-3375) final concentration: 50 mM HEPES pH7.5 • BSA: Bovine Serum Albumin Fraction V, fatty acid free (Roche Diagnostics GmbH, Cat. No. 9100221) diluted to a final concentration of 0.1% • EDTA: EDTA stock solution 500 mM, (GIBCO, Cat. No.: 15575-038) final concentration: 0.1 mM • DTT: 1,4-Dithiothreitol (Roche Diagnostics GmbH, Cat. No.: 197777), final conc.: 1 mM • MgCl2×6H2O: MERCK, Cat. No.: 105833.1000, final concentration: 10 mM • Assay Dilution Buffer (ADB): 50 mM HEPES, 0.1 mM EGTA, 0.1 mM Na Vanadate, 0.1 mM β-glycerophosphate, 10 mM MgCl2, 1 mM DTT, 0,1% BSA, pH 7.5 • Bead wash buffer: 10 g/L PBS (Phosphate buffered saline) with 2M NaCl+1% phosphoric acid Experimental Method:
In 40 μL volume, 26 μL of ADB diluted, purified recombinant human SYK360-635 [0.5 nM] was mixed with 4 μL of 10× concentrations of the test compounds, [usually 100 μM-0.003 μM] in [10%] DMSO and the mixture was incubated for 10 min at RT.
The kinase reaction was initiated by the addition of 10 μL 4× substrate cocktail containing the DYE peptide substrate [0 or 5 μM], ATP [20 μM] and […] [2 μCi/rxn]. After incubation at 30° C. for 15 min, the reaction was terminated by the transfer of 25 μL of the reaction sample to a 96 well 0.65 um Millipore MADVNOB membrane/plate containing 200 μL 5 mM EDTA and 20% Streptavidine coated beads in PBS.
The unbound radionucleotides were washed under vacuum with 3×250 μL 2M NaCl; 2×250 μL 2M NaCl+1% phosphoric acid; 1×250 μL H2O. After the last wash membrane/plates were transferred to an adaptor plate, heat dried for 15 min at 60° C., and 50 μL scintillation cocktail was added to each well and 4 h later the amount of radioactivity was counted in a top counter.
The IC50 was calculated using a non-linear curve fit with XLfit software (ID Business Solution Ltd., Guilford, Surrey, UK). […] Representative results are in Table 1.

Compound | IC50
Cc1cc(Nc2nn(C(C)C)c(=O)c3cc(N4CCN(C)CC4)ccc23)[nH]n1 [Example F-5, 2-Isopropyl-7-(4-methyl-piperazin-1-yl)-4-(5-methyl-2H-pyrazol-3-ylamino)-2H-phthalazin-1-one] | 0.37 µM and 0.7 µM and 0.536 µM
Cc1cc(Nc2nn(C(C)C)c(=O)c3cc(N4CCOCC4)ccc23)n[nH]1 [Example F-1, 2-Isopropyl-4-(5-methyl-1H-pyrazol-3-ylamino)-7-morpholino-2H-phthalazin-1-one] | 0.565 µM and 2.31 µM and 0.526 µM
Cc1cc(Nc2nn(C(C)C)c(=O)c3cc(OCCN(C)C)ccc23)n[nH]1 [Example ZD-5, 7-(2-Dimethylamino-ethoxy)-2-isopropyl-4-(5-methyl-1H-pyrazol-3-ylamino)-2H-phthalazin-1-one] | 1.86 µM
